One assay addresses T1, CCKA (Cavia porcellus, UniProt Q63931).
T1 construct: The pancreatata were removed from male guinea-pigs (200-300 g; Dunkin Hartley); from tissue; host or cells: guinea-pig pancreas membranes
T1 sequence (Q63931 1-430): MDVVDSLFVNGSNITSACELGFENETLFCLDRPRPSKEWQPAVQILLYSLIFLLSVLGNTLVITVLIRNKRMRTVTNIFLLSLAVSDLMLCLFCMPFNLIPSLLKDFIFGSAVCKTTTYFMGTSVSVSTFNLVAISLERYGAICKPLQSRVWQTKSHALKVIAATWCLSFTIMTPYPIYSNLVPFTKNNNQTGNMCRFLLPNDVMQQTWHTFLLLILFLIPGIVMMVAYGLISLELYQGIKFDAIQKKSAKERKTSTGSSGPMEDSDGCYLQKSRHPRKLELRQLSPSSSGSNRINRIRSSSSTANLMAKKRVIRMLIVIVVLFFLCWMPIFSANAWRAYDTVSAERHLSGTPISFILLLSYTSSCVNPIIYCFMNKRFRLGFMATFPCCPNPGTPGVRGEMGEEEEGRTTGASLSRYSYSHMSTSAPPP
In words: CCKA binding assay, pancreas membranes, [125I]-CCK8(S). The arrangement: species or system male guinea-pigs (Dunkin Hartley). The following applies: guinea-pig pancreas membranes; [125I]-CCK8(S) 200 pM; 0.375 μM PD134,308; 150 minutes at 21°; non-specific binding 100 nM L-364,718; read-out: pKi CCKλ (converted). As for the experimental part:
The compounds of the examples were also tested in a CCKA binding assay as follows:
The pancreatata were removed from male guinea-pigs (200-300 g; Dunkin Hartley) and placed in ice-cold HEPES buffer (pH 7.2@21°±3°). The pancreatata were homogenised in 40 ml ice-cold HEPES buffer using a polytron (Brinkmann, PT10, setting 10) 4×1 second. The homogenate was centrifuged at 39,800 g for 15 min at 4°. The supernatant was discarded and the pellet re-suspended using a Teflon-in-glass homogeniser in 20 volumes of fresh buffer and re-centrifuged as above. The final pellet was re-suspended using a Teflon-in-glass homogeniser to a tissue concentration of 1 mg ml^31 1 (original wet weight), and filtered through 500 μm pore-size Nytex mesh.
The membranes (400 μl; containing 0.375 μM PD134,308) are incubated for 150 minutes at 21°±3° in a final volume of 0.5 ml with HEPES buffer containing [^125 I]--CCK8 (S) (50 μl; 200 pM) and competing compound. Total and non-specific binding of [^125 I]--CCK8 (S) are defined using 50 μl of buffer and 50 μl of 100 nM L-364,718 respectively. The assay is terminated by rapid filtration through pre-soaked Whatman GF/B filters using a Brandell Cell Harvester. The filters were washed (3×3 ml) with ice-cold 50 mM Tris HCl (pH 7.4 at 4°) and bound radioactivity is determined by counting (1 min) in a gamma counter.

The target in another assay is T2, CCKB receptor (Mus musculus, UniProt P56481).
T2 construct: CCKB receptor in mouse cortical membranes; from tissue; host or cells: mouse cerebral cortex membranes (male mice, Charles River)
T2 sequence (P56481 1-453): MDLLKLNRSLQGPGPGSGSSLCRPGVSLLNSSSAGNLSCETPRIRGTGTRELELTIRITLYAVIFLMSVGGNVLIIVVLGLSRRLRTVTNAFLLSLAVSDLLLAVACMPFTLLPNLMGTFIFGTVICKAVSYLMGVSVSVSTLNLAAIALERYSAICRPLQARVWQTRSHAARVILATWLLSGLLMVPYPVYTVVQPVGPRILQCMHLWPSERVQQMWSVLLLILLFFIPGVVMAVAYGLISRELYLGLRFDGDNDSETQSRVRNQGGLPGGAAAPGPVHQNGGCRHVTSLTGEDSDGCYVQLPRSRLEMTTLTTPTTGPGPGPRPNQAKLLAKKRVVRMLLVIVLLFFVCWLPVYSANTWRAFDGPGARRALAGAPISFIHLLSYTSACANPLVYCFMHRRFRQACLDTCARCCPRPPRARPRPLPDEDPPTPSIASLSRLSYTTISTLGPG
In words: CCKB radioligand binding assay in mouse cortical membranes, [125I] CCK-8S (selectivity testing). The arrangement: species or system male mice. The conditions noted are these: [125I] CCK-8S 200 pM, 150 min at 21°, pH 7.2, non-specific binding L-365,260, read-out: pKi CCKB (converted). Here is the method: The compounds were assayed for selectivity with respect to the CCKB receptor in mouse cortical membranes by means of a radioligand binding assay. The procedure was as follows:
The whole brains from male mice (CDI 22-25 g; Charles River) were removed and placed in ice-cold buffer (pH 7.2 at 21°±3° C.) of the following composition (mM); 10 HEPES, 130 NaCl, 4.7 KCl, 5 MgCl2, 1 EDTA and containing 0.25 g. 1^-1 bacitracin.
The cortex was dissected, weighed and homogenised in 40 ml ice-cold buffer using a Teflon-in-glass homogeniser. The homogenate was centrifuged at 39,800 g for 20 min at 4° C., the supernatant discarded and the pellet resuspended by homogenisation in fresh buffer. The homogenate was recentrifuged (39,800 g; 20 min at 4° C.) and the final pellet was resuspended in HEPES buffer to give a tissue concentration of 2 mg ml^-1 (original wet weight).
The membranes (400 μl) were incubated for 150 min at 21°±3° C. in a final volume of 0.5 ml with HEPES buffer containing [^125 I] CCK-8S (0.05 ml; 200 pM NEN 2200Ci.mmol^-1) and competing compound. Total and non-specific binding of [^125 I] CCK-8S were defined using 0.05 ml of buffer and 0.05 ml of 10 mM L-365,260, respectively. The assay was terminated by rapid filtration through pre-soaked Whatman GF/B filters using a Brandell Cell harvester. The filters were washed (3×3 ml) with ice-cold 50 mM Tris-HCl (pH 7.4 at 4° C.) and bound radioactivity determined by counting (1 min.) in a gamma counter.

Assay [1] deals with T3, CCK (gallbladder) receptor (Cavia porcellus, UniProt Q63931).
T3 construct: Isolated, strip preparations were prepared from gall-bladders removed from male Dunkin-Hartley guinea-pigs; from tissue; host or cells: guinea-pig gall-bladder strips
T3 sequence (Q63931 1-430): T1 sequence (Q63931 1-430)
The assay can be described thus: CCK-receptor bioassay, isolated guinea-pig gall-bladder strip preparations, CCK-8 as agonist. It is filed as cell-based, male Dunkin-Hartley guinea-pigs. The following applies: negative log10 of equilibrium dissociation constant; guinea-pig gall-bladder strips; CCK-8 agonist; test compound incubated for 60 minutes; 37° C; read-out: pKB versus CCK (gallbladder) (converted). As for the experimental part:
The compounds of the examples were assayed using a CCK-receptor bioassay as follows:
Isolated, strip preparations were prepared from gall-bladders removed from male Dunkin-Hartley guinea-pigs (250-500 g body weight) according to the method of La Morte, W. W., et al., J.P.E.T., 217, (3), 638-644 (1981).
The complete gall-bladder is removed and opened along the longitudinal axis. Strips measuring 3 mm in the longitudinal axis and 1 mm in the transverse axis are cut and then tied with cotton to stainless steel wires. The preparation is connected to a GRASS FTO3 isometric transducer under an initial loading tension of 1 g and is immersed in 20 mls of Krebs solution maintained at 37° C. and gassed with 95% O2 /5% CO2. The Krebs solution is as detailed above in connection with the fundus assay, except that the Ca^2+ concentration is decreased to 0.5 mM. After 30 mins the preparation is washed. Drug addition begins after an initial 90 min stabilisation period. Responses are measured as changes in tension from that immediately prior to any drug addition. Single cumulative agonist concentration-effect curves, using CCK-8 as agonist, are obtained on each preparation in the absence and presence of test compound which has been incubated for 60 minutes. The antagonist activity of the test compound is estimated and expressed as the negative logarithm (base 10) of the equilibrium dissociation constants (pKB) using the modifications of standard competitive analysis described by Black et al., Br. J. Pharmacol.,86,571-579, (1985) and Shankley et al., Br. J. Pharmacol.,94,264-274 (1988).

Take `O=C(O)C[C@H](NS(=O)(=O)c1ccc2ccccc2c1)C(=O)N1CCC2(CCCC2)CC1` [Example 13, 2-Naphthalenesulphonyl-L-aspartyl 3-azaspiro[5.4]decylamide]: the Ki at CCKA was 6.31 µM; at CCKB receptor, 10 µM. Moreover, the Kb in assay [1] is 6.31 µM.
As to `O=C(O)C[C@H](NS(=O)(=O)c1ccc2ccccc2c1)C(=O)NC1CCCCCCCCCCC1` [Example 16, 2-Naphthalenesulphonyl-L-aspartyl cyclododecylamide], the Ki at CCKA is 0.0398 µM; at CCKB receptor it was 10 µM. Moreover, the Kb in assay [1] is 0.0794 µM.
For `CCCCCN(CCCCC)C(=O)[C@@H](CC(=O)O)NS(=O)(=O)c1ccc2ccccc2c1` [Example 18, 2-Naphthalenesulphonyl-D-aspartyl dipentylamide], in that order: 0.631 µM, 3.16 µM and 0.158 µM.
For `CCCCCN(CCCCC)C(=O)[C@H](CCC(=O)O)NS(=O)(=O)c1ccc2ccccc2c1` [Example 19, 2-Naphthalenesulphonyl-L-glutamyl dipentylamide], in that order: 1.58 µM, 3.16 µM and 0.631 µM.
For `CCCCCN(CCCCC)C(=O)[C@H](CC(=O)O)NS(=O)(=O)c1cccc2ccccc12` [Example 21, 1-Naphthalenesulphonyl-L-aspartyl dipentylamide], in that order: 2 µM, 10 µM and 1.26 µM.
